In patent US9242982B2, “Pyridopyrimidine based derivatives as potential phosphodiesterase 3 (PDE3) inhibitors and a process for the preparation thereof” (COUNCIL OF SCIENTIFIC & INDUSTRIAL RESEARCH, priority 2013, dated 2016):

Molecular target: PDE3 enzyme (Homo sapiens (Human), UniProt Q14432)
Assay: PDE3 inhibition assay (BIOMOL GREEN Quantizyme Assay System)
Type: biochemical
Conditions: PDE3 from platelets isolated from human blood; cAMP substrate; 1 hour at 37° C.; read at 620 nm
Procedure: PDE3 inhibition assay was performed a BIOMOL GREEN™ Quantizyme Assay System (catalogue No. BML-AK800-0001). The Platelets isolated from human blood were used as a source of PDE3 enzyme. 10 mL blood collected in a vacutainer tube (containing K3 EDTA) and centrifuged at 190×g for 15 min at room temperature. Top layer (platelet rich plasma) collected, centrifuged at 2500 g for 5 min at 22° C. (Room temp.) The pellet was washed with 2 ml of 50 mM tris buffer (pH-7.4) containing 1 mM MgCl2 and centrifuged at 2500 g for 5 min. Then 200 μl of assay buffer (from PDE kit, Enzo Life Sciences) was added to the pellet and sonicated at 30 s per ml. Pellet was freeze thawed for three times (−80° C.) in order to rupture the platelet membrane and release the PDE enzyme. Then the cell homogenate was centrifuged at 2500 rpm for 5 min. Supernatant was collected and used as source for PDE3 enzyme. In 96 well plate (Prod. No. BML-KI101), we added supernatant having PDE3 enzyme, PDE3 assay buffer, cAMP substrate, 5′ nucleotidase and test or standard compound and incubated for 1 hour at 37° C. The reaction was arrested by the addition 100 μl BIOMOL GREEN reagent incubated in room temp for 20 min. The green color developed was measured at 620 nm.
The in vitro Phosphodiestarase (PDE3) inhibitory activity of compounds 1a-q, were measured using a BIOMOL GREEN™ Quantizyme Assay System (catalogue No. BML-AK800-0001). The basic principle for this assay is the cleavage of c-AMP or c-GMP into their respective nucleotide by a cyclic nucleotide phosphodiesterase. The nucleotide (AMP or GMP) released is further cleaved into the nucleoside and phosphate by the enzyme 5′-nucleotidase. The extent of phosphate released is directly proportional to the PDE activity. In this screening method, the released phosphate by the enzymatic cleavage is quantified using BIOMOL GREEN reagent in a modified malachite green assay. The resulting green colour with λmax at 620 nm is directly proportional to the released phosphate and then PDE activity.

Sequence of PDE3 enzyme (Q14432 whole entry): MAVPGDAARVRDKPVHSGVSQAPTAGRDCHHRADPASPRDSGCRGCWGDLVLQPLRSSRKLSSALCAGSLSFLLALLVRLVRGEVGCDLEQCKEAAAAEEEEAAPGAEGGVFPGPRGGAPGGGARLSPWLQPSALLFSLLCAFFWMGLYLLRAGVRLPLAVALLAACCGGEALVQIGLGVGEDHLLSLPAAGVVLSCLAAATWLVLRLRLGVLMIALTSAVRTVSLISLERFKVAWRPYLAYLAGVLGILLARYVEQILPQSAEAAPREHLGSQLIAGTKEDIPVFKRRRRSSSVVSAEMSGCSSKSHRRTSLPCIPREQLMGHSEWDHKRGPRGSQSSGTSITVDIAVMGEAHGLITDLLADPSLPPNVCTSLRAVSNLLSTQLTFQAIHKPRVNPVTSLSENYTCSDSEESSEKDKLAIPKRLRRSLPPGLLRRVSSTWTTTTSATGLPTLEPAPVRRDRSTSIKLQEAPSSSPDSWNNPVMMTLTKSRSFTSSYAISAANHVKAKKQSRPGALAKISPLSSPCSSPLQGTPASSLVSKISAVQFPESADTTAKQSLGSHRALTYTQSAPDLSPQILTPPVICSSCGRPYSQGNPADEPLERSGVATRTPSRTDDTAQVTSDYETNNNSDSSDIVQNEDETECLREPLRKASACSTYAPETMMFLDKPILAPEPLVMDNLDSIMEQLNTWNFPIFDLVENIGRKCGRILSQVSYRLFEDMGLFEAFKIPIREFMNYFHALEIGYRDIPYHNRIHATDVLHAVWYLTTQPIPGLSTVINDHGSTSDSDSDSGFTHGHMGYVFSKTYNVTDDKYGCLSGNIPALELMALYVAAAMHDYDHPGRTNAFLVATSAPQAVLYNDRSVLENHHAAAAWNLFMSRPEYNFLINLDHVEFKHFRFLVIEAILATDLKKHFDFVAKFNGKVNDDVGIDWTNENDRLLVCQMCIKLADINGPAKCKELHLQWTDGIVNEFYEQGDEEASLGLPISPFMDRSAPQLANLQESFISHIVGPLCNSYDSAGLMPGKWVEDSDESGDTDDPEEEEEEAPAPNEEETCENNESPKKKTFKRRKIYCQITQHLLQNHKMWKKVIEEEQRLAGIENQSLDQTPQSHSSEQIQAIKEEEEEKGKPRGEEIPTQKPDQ

IC50 | SMILES
11800 nM | Cn1c(=O)c2cc(Cc3ccccc3)c(=O)[nH]c2n(C)c1=O [Compound 1a, 6-Benzyl-1,3-dimethyl-1,2,3,4,7,8-hexahydropyrido[2,3-d]pyrimidine-2,4,7-trione]
32.3 nM | Cn1c(=O)c2cc(Cc3cccc(F)c3)c(=O)[nH]c2n(C)c1=O [Compound 1c, 6-(3-Fluorobenzyl)-1,3-dimethyl-1,2,3,4,7,8-hexahydropyrido[2,3-d]pyrimidine-2,4,7-trione]
6.6 nM | Cn1c(=O)c2cc(Cc3ccccc3Br)c(=O)[nH]c2n(C)c1=O [Compound 1i, 6-(2-Bromobenzyl)-1,3-dimethyl-1,2,3,4,7,8-hexahydropyrido[2,3-d]pyrimidine-2,4,7-trione]
4.8 nM | Cn1c(=O)c2cc(Cc3ccc(Br)cc3)c(=O)[nH]c2n(C)c1=O [Compound 1k, 6-(4-Bromobenzyl)-1,3-dimethyl-1,2,3,4,7,8-hexahydropyrido[2,3-d]pyrimidine-2,4,7-trione]
12.5 nM | Cn1c(=O)c2cc(Cc3ccc(Cl)cc3)c(=O)[nH]c2n(C)c1=O [Compound 1g, 6-(4-Chlorobenzyl)-1,3-dimethyl-1,2,3,4,7,8-hexahydropyrido[2,3-d]pyrimidine-2,4,7-trione]
48.8 nM | Cn1c(=O)c2cc(Cc3ccccc3F)c(=O)[nH]c2n(C)c1=O [Compound 1b, 6-(2-Fluorobenzyl)-1,3-dimethyl-1,2,3,4,7,8-hexahydropyrido[2,3-d]pyrimidine-2,4,7-trione]
